Columns and labels:
Spodoptera littoralis [1] = assay: Antifeedant activity against Spodoptera littoralis larvae fed on compound-treated disk after 18 hr by two-choice assay; type: functional
Spodoptera littoralis [2] = assay: Antifeedant activity against Spodoptera littoralis larvae fed on compound-treated disk at 100 ppm after 18 hr by two-choice assay; type: functional

Row | SMILES | AFC50 (Spodoptera littoralis [1]) | AFI (Spodoptera littoralis [2])
1 | CC(=O)OC[C@]12[C@H](CCC[C@]13CO3)[C@@]1(C[C@@H](c3ccoc3)O[C@@H]1O)[C@H](C)[C@@H](OC(C)=O)[C@@H]2OC(C)=O | >1000 ppm | -14.3%
2 | CC(=O)O[C@@H]1O[C@H](c2ccoc2)C[C@]12[C@H](C)[C@@H](OC(C)=O)C(=O)[C@H]1[C@@H]2CCC[C@@]12CO[C@@H](C)O2 | >390 ppm | 34.1%
3 | CC(=O)OC[C@]12[C@H](CCC[C@]13CO3)[C@@]1(C[C@@H](c3ccoc3)O[C@@H]1O)[C@H](C)[C@@H](O)[C@@H]2OC(C)=O | 39 ppm | 54%
4 | CC(=O)OC[C@]12[C@H](CCC[C@]13CO3)[C@@]1(C[C@@H](c3ccoc3)O[C@@H]1O)[C@H](C)[C@@H](O)[C@@H]2O | 300 ppm | 30.4%
5 | CC(=O)OC[C@]12[C@H](CCC[C@]13CO3)[C@@]1(C[C@@H](c3ccoc3)O[C@@H]1OC(C)=O)[C@H](C)[C@@H](OC(C)=O)[C@@H]2OC(C)=O | >1000 ppm | 26.7%
6 | CC(=O)OC[C@]12C(=O)[C@H](O)[C@@H](C)[C@]3(C[C@@H](c4ccoc4)O[C@H]3OC(C)=O)[C@H]1CCC[C@]21CO1 [ERIOCEPHALIN] | >1000 ppm | 5.5%
7 | CC(=O)OC[C@]12[C@H](CCC[C@]13CO3)[C@@]1(C[C@@H](c3ccoc3)O[C@@H]1O)[C@H](C)[C@@H](OC(C)=O)[C@@H]2O | >1000 ppm | 5.4%
8 | CC(=O)OC[C@]12[C@H](CCC[C@]13CO3)[C@@]1(C[C@@H](c3ccoc3)O[C@H]1OC(C)=O)[C@H](C)[C@@H](OC(C)=O)[C@@H]2O | >1000 ppm | -21.1%
9 | CC(=O)O[C@@H]1O[C@H](c2ccoc2)C[C@]12[C@H](C)[C@@H](OC(C)=O)C(=O)[C@H]1[C@@H]2CCC[C@@]12CO[C@H](C)O2 | >1000 ppm | -5.4%
